Assay [1] relates to anaphylactic tissue response. Put plainly: anaphylactic tissue response / leucotriene activity of nitro substituted compounds. It is filed as cell-based.
Assay [2] has as its system sensitized guinea pig trachea. Put plainly: Schultz-Dale reaction, sensitized guinea pig trachea (tracheal spirals), ovalbumin challenge. It counts as cell-based. To be noted: Cavia porcellus; for inhibition at 10 µM: 10^-5 M; for inhibition at 1 µM: 10^-6 M. The protocol: The antiallergy activity of the compounds of this invention was established by the Schultz-Dale reaction employing sensitized guinea pig trachea by the following procedure:
(§1) Guinea pigs weighing from about 275 to 325 g. are sensitized to ovalbumin. Three to four weeks later, tracheae are removed under CO2 anesthesia. Excess tissue is removed and each trachea is spirally cut and suspended under 6 g. tension in a tissue bath (37° C.) containing modified Tyrode's solution (pH 7.4) oxygenated with a 95 percent O2 -5 percent CO2 gas mixture. The Tyrodes composition (mmol) is: NaCl, 139.2; KCl, 2.7; MgSO4.7H2 O, 0.49; NaHCO3, 11.9; NaH2 PO4.H2 O, 0.4; CaCl2.2H2 O, 1.8 and glucose, 5.5. Tracheae are allowed to equilibrate for 90 minutes before exposure to agonists or drugs.
A response to histamine is elicited at two bath concentrations (1×10^-6 M and 1×10^-4 M). The lower concentration primes the tissue and is allowed a 5 minute contact period. The higher concentration (10 minute exposure) produces a maximal response for the tissue. In each case, the bath fluid is replaced and the tissue is washed two times with fresh Tyrode solution. Compounds tested are introduced into the bath to produce a 10^-4 M concentration twenty minutes after the second histamine treatment (subsequent testing at 10^-5 and 10^-6 M bath concentrations are employed in dose-response analyses). Ovalbumin (8 μg/ml) is introduced into the bath ten minutes later.
The contracture curve following antigen challenge is compared with the maximal histamine response at 10 minute time intervals up to 90 minutes and the responses are expressed as percentage inhibition. The area under the curve is calculated for each time period. […] The EC50 is calculated from the area under the curve values at 90 minutes to define the effective concentration of test compound which produces a 50 percent reduction in area under the curve compared to control tissues.

Assay [3] concerns guinea pig lung parenchyma strips. Put plainly: Schultz-Dale reaction, guinea pig lung parenchyma strips, ovalbumin challenge. It is filed as cell-based. To be noted: Cavia porcellus, 1 h, at 60 minutes, read-out: Parenchymal Strips % Inhibition at 60 minutes; for inhibition at 100 µM: 10^-4 M. The protocol:
as §1
Following the same basic procedure, guinea pig lung parenchyma strips (25×3×3 mm) dissected along the distal edges of two different lobes are suspended under 1 g. tension in the tissue bath. Equilibration in the Tyrode solution is conducted for 45 minutes with complete solution changes at 15 minute intervals. Maximal contraction induced with histamine (50 μM) primes the tissue. Five minutes later, the bath fluid is exchanged two times and the tissues are allowed to equilibrate 15 minutes longer. The test compound is then introduced into the bath to give a 10^-4 M solution. Five minutes later the ovalbumin challenge (8 μg/ml) is given. The data is collected at ten minute intervals up to 60 minutes and analysed as with the guinea pig trachea technique.

Assay [4] has as its target T1, (Cavia porcellus, UniProt Q2NNR5).
T1 construct: employing guinea pig ileal tissue; from tissue; host or cells: guinea pig ileum
T1 sequence (Q2NNR5 1-340): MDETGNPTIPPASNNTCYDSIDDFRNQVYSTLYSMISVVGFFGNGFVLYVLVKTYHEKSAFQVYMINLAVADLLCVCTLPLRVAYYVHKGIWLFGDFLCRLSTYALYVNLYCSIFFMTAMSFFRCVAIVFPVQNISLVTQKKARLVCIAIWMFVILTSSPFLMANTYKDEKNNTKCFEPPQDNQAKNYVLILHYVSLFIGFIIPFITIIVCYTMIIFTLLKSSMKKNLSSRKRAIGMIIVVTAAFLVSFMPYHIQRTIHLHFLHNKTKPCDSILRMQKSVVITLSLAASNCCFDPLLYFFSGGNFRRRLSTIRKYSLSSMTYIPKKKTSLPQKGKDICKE
As to the kind of experiment: Schultz-Dale reaction, guinea pig ileal tissue, inhibition of leucotriene D4. It counts as cell-based. To be noted: Schultz-Dale reaction employing guinea pig ileal tissue; read-out: pA2 as inhibitor of leucotriene D4 (converted).

The test system of the next assay is SRS-A. To be noted: J.Med.Chem. 20 371 (1977); cited from earlier work.
[5] abbreviates: 1.5 h, 10^-4 M, at 90 minutes, read-out: Tracheal Spirals % Inhibition at 90 minutes.
[6] abbreviates: 1.5 h, 50 percent reduction in area under the curve at 90 minutes, read-out: Tracheal Spirals EC50.

This is an account of results in patent US4448729A, “Leucotriene antagonists” (American Home Products Corporation, priority 1982, dated 1984).

Where a name gives a salt, the structure may show the parent alone. Read-outs that look alike come from different tables or passages of the source.

For the compound `CCCc1c(OCC(O)CNc2cccc([N+](=O)[O-])c2C#N)ccc(C(C)=O)c1O` (centres unmarked) [2-[[3-(4-acetyl-3-hydroxy-2-propylphenoxy)-2-hydroxypropyl]amino]-6-nitrobenzonitrile], in assay [1], the “effect on anaphylactic tissue response” value is given as “potentiator of the anaphylactic tissue response”.
For orientation: inhibition means the drop in the measured response relative to a control, in per cent. In general, EC50 refers to the concentration at which the effect is half-maximal. Take `CCCc1c(OCC(O)COc2cccc(N)c2C#N)ccc(C(C)=O)c1O` (centres unmarked) [Example 1, 2-[3-(4-Acetyl-3-hydroxy-2-propylphenoxy)-2-hydroxypropoxy]-6-aminobenzonitrile]: in assay [2] (setting [5]), the inhibition at 100 µM is 64.2%. Moreover, in assay [2] (1.5 h, at 90 minutes), the inhibition at 10 µM was determined as 45.7% and the inhibition at 1 µM was 20.6%. Further, the EC50 in assay [2] (setting [6]) was determined as 20 µM.
Turning to `CCCc1c(OCC(O)COc2cccc(NC(=O)C(=O)OCC)c2C#N)ccc(C(C)=O)c1O` (centres unmarked) [Example 2, [[3-[3-(4-Acetyl-3-hydroxy-2-propylphenoxy)-2-hydroxypropoxy]-2-cyanophenyl]amino]oxoacetic acid ethyl ester], the results for the inhibition at 100 µM in assay [3] and in assay [2] (setting [5]) were 65.5% and 73%, respectively. Further, the inhibition at 10 µM in assay [3] (10^-5 M) stood at 2.09%; in assay [2] (1.5 h, at 90 minutes), 63%. Further, the Kb in assay [4] is 0.000398 µM. For the same compound, the inhibition at 1 µM in assay [2] (1.5 h, at 90 minutes) is 18.8%. The concentration for a half-maximal effect (EC50) in assay [2] (setting [6]) is 8.7 µM.
Turning to `CCCc1c(OCC(O)COc2cccc(NC(=O)C(=O)O)c2C#N)ccc(C(C)=O)c1O` (centres unmarked) [Example 3, [[3-[-(4-Acetyl-3-hydroxy-2-propylphenoxy)-2-hydroxypropoxy]-2-cyanophenyl]amino]oxoacetic acid sodium salt], the inhibition at 100 µM in assay [3] turned out to be 22.9%. The inhibition at 100 µM in assay [2] (setting [5]) was found to be 62.1%. In assay [2] (1.5 h, at 90 minutes), the inhibition at 10 µM was 21.5% and the inhibition at 1 µM turned out to be 12.8%. In addition, the EC50 in assay [2] (setting [6]) amounted to 53 µM.
For `CCCc1c(OCC(O)COc2cccc(N)c2)ccc(C(C)=O)c1O` (centres unmarked) [Example 4, 1-[2-Hydroxy-3-propyl-4-[2-hydroxy-3-(3-aminophenoxy)propoxy]phenyl]ethanone], in assay [2] (setting [5]), the inhibition at 100 µM is 76.2%. In addition, in assay [2] (1.5 h, at 90 minutes), the inhibition at 10 µM turned out to be 9.07% and the inhibition at 1 µM was 4.98%. The EC50 in assay [2] (setting [6]) was 36 µM.
The corresponding values for `CCCc1c(OCC(O)COc2cccc(NC(=O)C(=O)OCC)c2)ccc(C(C)=O)c1O` (centres unmarked) [Example 5, [[3-[3-(4-Acetyl-3-hydroxy-2-propylphenoxy)-2-hydroxypropoxy]phenyl]amino]oxoacetic acid ethyl ester] are 53%, 22.8%, 8.57% and 97 µM.
As to `CCCc1c(OCC(O)CNc2cccc(N)c2C#N)ccc(C(C)=O)c1O` (centres unmarked) [Example 6, 2-Amino-6-[[3-(4-acetyl-3-hydroxy-2-propylphenoxy)-2-hydroxypropyl]amino]benzonitrile], the inhibition at 100 µM in assay [2] (setting [5]) amounted to 38.8%.
For `CCCc1c(OCC(O)CNc2cccc(NC(=O)C(=O)OCC)c2C#N)ccc(C(C)=O)c1O` (centres unmarked) [Example 7, [[[3-[3-(4-acetyl-3-hydroxy-2-propylphenoxy)-2-hydroxypropyl]amino]-2-cyanophenyl]amino]oxoacetic acid ethyl ester], in assay [2] (setting [5]), the inhibition at 100 µM amounted to 63.8%. Moreover, in assay [2] (1.5 h, at 90 minutes), the inhibition at 10 µM is 39.3% and the inhibition at 1 µM is 2.64%. The half-maximal effective concentration (EC50) in assay [2] (setting [6]) worked out at 30 µM.
The corresponding values for `CCCc1c(OCC(O)CNc2cccc(NC(=O)C(=O)O)c2C#N)ccc(C(C)=O)c1O` (centres unmarked) [Example 8, [[[3-[3-(4-Acetyl-3-hydroxy-2-propylphenoxy)-2-hydroxypropyl]amino]-2-cyanophenyl]amino]oxoacetic acid sodium salt] are 63.5%, 37.5%, 28.4% and 25 µM.
With `CCCc1c(OCC(O)CNc2cccc(N)c2C(N)=O)ccc(C(C)=O)c1O` (centres unmarked) [Example 9, 2-[3-(4-Acetyl-3-hydroxy-2-propylphenoxy)-2-hydroxypropyl]amino-6-aminobenzamide], the inhibition at 100 µM in assay [2] (setting [5]) worked out at 40.7%.
For `CC(=O)c1ccc(OCC(O)COc2cccc([N+](=O)[O-])c2)cc1O` (centres unmarked) [Example 10, 1-[2-Hydroxy-4-[2-hydroxy-3-(3-nitrophenoxy)propoxy]phenyl]ethanone], the inhibition at 100 µM in assay [2] (10^-4 M concentration, sensitized guinea pig trachea, read-out: percent inhibition in the Schultz-Dale reaction) turned out to be 62%. Also, in assay [2] (sensitized guinea pig trachea, read-out: EC50 in the Schultz-Dale reaction), the EC50 amounted to 76 µM.
As to `CCCc1c(OCC(O)COc2ccc3c(=O)cc(C(=O)[O-])oc3c2CCC)ccc(C(C)=O)c1O.[Na+]` (centres unmarked) [FPL 55712, sodium 7-[3-(4-acetyl-3-hydroxy-2-propylphenoxy)-2-hydroxypropoxy]-4-oxo-8-propyl-4H-1-benzopyran-2-carboxylate], the “antagonism of SRS-A” value with SRS-A was “specific antagonist of SRS-A”.
